Measurements published in PubChem BioAssay AID1648 (Sanford-Burnham Center for Chemical Genomics, 2009).
Calls of active or inactive are those of the source. The rule behind the calls is not given here.

Biological target: Serine/threonine-protein kinase mTOR (Homo sapiens) (UniProt P42345)
Assay: mTOR FRB domain ligand binding – biophysical, NMR (AID 1648)
Conditions: NMR binding to FRB domain, chemical shift

Chain of Serine/threonine-protein kinase mTOR (Homo sapiens) (P42345 2015-2114): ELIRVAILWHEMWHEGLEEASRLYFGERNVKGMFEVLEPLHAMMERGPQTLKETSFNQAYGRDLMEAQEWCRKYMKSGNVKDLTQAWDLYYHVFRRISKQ

Structure (SMILES)	Kd
CN=C(C)c1c(O)n(C)c(=O)n(C)c1=O	> 4 mM (inactive)
Cc1ccc(C(=O)N2CCOCC2)cc1Cl	> 4 mM (inactive)
CC(=O)O[C@H]1CC[C@]2(C)C3CC[C@@]4(C)C(CC5O[C@@]6(CCC(C)CO6)[C@@H](C)C54)C3CC[C@@H]2C1 (stereo partly specified)	> 4 mM (inactive)
O=C1CCC(=O)N1CNc1ccccc1	> 4 mM (inactive)
CCCCCc1c2c(cc(O)c1C(=O)O)OC(=O)c1c(cc(OC)cc1C(=O)CCCC)O2	> 4 mM (inactive)
CC(=O)O[C@@H]1CC2C(C)(C)CCC(=O)[C@]2(C)C2CC[C@@]3(C)[C@H](c4ccoc4)OC(=O)C4OC43[C@@]21C (stereo partly specified)	> 4 mM (inactive)
COc1cc2c(cc1OC)-c1nnnn1C(C)(C)C2	> 4 mM (inactive)
Nc1ccc(CN2CCOCC2)cc1	> 4 mM (inactive)
COc1ccccc1NC(=O)/C=N/O	> 4 mM (inactive)
CC(=O)NC(=S)Nc1cccc(C(=O)O)c1C	> 4 mM (inactive)
Cn1cnnc1SCCCNC(=O)Nc1ncccn1	> 4 mM (inactive)
CN(C)N1C(=O)C2C3C=CC(O3)C2C1=O (stereo unspecified)	> 4 mM (inactive)
NC(=O)CN1C(=O)c2cccc3cccc1c23	> 4 mM (inactive)
O=C(Nc1cccnc1)c1c(F)c(F)c(F)c(F)c1F	> 4 mM (inactive)
COC(=O)[C@@H]1OC(=O)C2OC23[C@@]1(C)CCC1[C@@]2(C)CCC(=O)C(C)(C)C2C[C@@H](OC(C)=O)[C@]13C (stereo partly specified)	> 4 mM (inactive)
COc1ccc2c(=O)c(CC(=O)O)coc2c1	> 4 mM (inactive)
COc1ccccc1CNc1nc2nc(C)cc(=O)n2[nH]1	> 4 mM (inactive)
CCOC(=O)C(C)c1n[nH]c(=O)c2ccccc12 (stereo unspecified)	> 4 mM (inactive)
CCN(CC)S(=O)(=O)c1cccc2nsnc12	> 4 mM (inactive)
CCNC(=S)N1CCC(C(N)=O)CC1	> 4 mM (inactive)
O=C(c1ccncc1)c1ccc(Br)cc1	> 4 mM (inactive)
CN(C)S(=O)(=O)Nc1ccc(Br)cc1F	> 4 mM (inactive)
O=c1nc(NCc2ccco2)sc2ncccc12	> 4 mM (inactive)
NC1=NC(=O)/C(=C\c2ccco2)S1	> 4 mM (inactive)
O=c1c(Cl)c(NCCO)ncn1-c1ccccc1	> 4 mM (inactive)

Structure (SMILES)	Kd
COC(=O)C[C@@H]1C2(C)C(=O)[C@@H](CC3=C4CC(=O)O[C@@H](c5ccoc5)[C@]4(C)CCC32)[C@H](OC(C)=O)C1(C)C (stereo partly specified)	> 4 mM (inactive)
Nc1nc(O)c(C2=c3cc(Cl)ccc3=NC2=O)s1	> 4 mM (inactive)
CC(=O)n1c(N)nc2ccccc21	> 4 mM (inactive)
O=C1CCC(C(=O)NCc2cccnc2)N1 (stereo unspecified)	> 4 mM (inactive)
O=C(O)c1ccc2snnc2c1	> 4 mM (inactive)
CC(C)Oc1ccc(C2CC(=O)NNC2=O)cc1 (stereo unspecified)	> 4 mM (inactive)
CC1=NCCc2c1[nH]c1cc(O)ccc21	> 4 mM (inactive)
O=C(O)c1ccc(CSc2ncn[nH]2)cc1	> 4 mM (inactive)
NC(=O)c1ccsc1NC(=O)c1cccnc1	> 4 mM (inactive)
COc1ccc2c(c1)OCC(Cc1ccc(OC)c(O)c1)C2=O (stereo unspecified)	> 4 mM (inactive)
COc1ccc2ccc(=O)oc2c1	> 4 mM (inactive)
COc1ccc(-c2coc3c(O)c(OC)ccc3c2=O)cc1	> 4 mM (inactive)
Cc1cc(C)n2nc(-c3cccnc3)nc2n1	> 4 mM (inactive)
CC(=O)NCC1(c2ccccc2)CCOCC1	> 4 mM (inactive)
CCOC(=O)c1c(C)n([O-])c2ccccc2[n+]1=O	> 4 mM (inactive)
CN(C)S(=O)(=O)c1ccc(NC=O)cc1	> 4 mM (inactive)
CSc1cc(C)[nH]c(=O)n1	> 4 mM (inactive)
Nc1cc(C(=O)O)ccc1N1CCCCCC1	> 4 mM (inactive)
N/N=C/c1cccnc1	> 4 mM (inactive)
O=C(O)C1CC(=O)N(Cc2ccco2)C1 (stereo unspecified)	> 4 mM (inactive)
CN(c1ccc(C(=O)N2CCCCC2)cc1)S(C)(=O)=O	> 4 mM (inactive)
O=C1c2cccnc2C(=O)N1Cc1ccc2c(c1)OCO2	> 4 mM (inactive)
COc1cc(O)c(C(C)=O)c(OC)c1	> 4 mM (inactive)
CSc1nc2nc(C)cc(=O)n2[nH]1	> 4 mM (inactive)
COCc1c(CN)cnc(C)c1N	> 4 mM (inactive)

Structure (SMILES)	Kd
COc1ccc(N2C(=O)CCC2=O)c(OC)c1	> 4 mM (inactive)
Cn1[nH]c2nc3[nH]n(C)c(=O)c3c(-c3ccccc3)c2c1=O	> 4 mM (inactive)
O=C1CS/C(=N/N=C2CCCC2)N1	> 4 mM (inactive)
O=C(NC1=NCCS1)c1cccc(F)c1	> 4 mM (inactive)
Cc1cc(CN2C(=O)c3ccccc3C2=O)on1	> 4 mM (inactive)
CCc1c(C(=O)Nc2ccncc2)csc1C	> 4 mM (inactive)
Cc1ccc(C)n1NC(=O)c1ccco1	> 4 mM (inactive)
NCCc1cnc[nH]1	> 4 mM (inactive)
CN1CN/C(=N\[N+](=O)[O-])N(c2ccccc2)C1	> 4 mM (inactive)
N#Cc1nc(N2CCCCC2)nc(N2CCOCC2)n1	> 4 mM (inactive)
CCNC(=O)CC1Nc2ccccc2NC1=O (stereo unspecified)	> 4 mM (inactive)
Nc1ccc(OC(F)(F)F)cc1	> 4 mM (inactive)
OCCNc1nc2ccc(Cl)cc2[nH]1	> 4 mM (inactive)
O=C(NCO)c1ccc([N+](=O)[O-])cc1	> 4 mM (inactive)
O=Cc1c(N2CCOCC2)nc2ccccn2c1=O	> 4 mM (inactive)
NC(=O)c1ccc(N=Cc2ccc[nH]2)cc1	> 4 mM (inactive)
O=[N+]([O-])c1cccc(-c2nnco2)c1	> 4 mM (inactive)
Cn1nccc1N	> 4 mM (inactive)
CCN1CCn2c1nc(N1CCOCC1)nc2=O	> 4 mM (inactive)
COC(=O)CC1C(C)(C)C(OC(C)=O)[C@@H]2[C@@H](OC(C)=O)[C@]34O[C@@]2(O)[C@]1(C)C3CC[C@]1(C)C4=CC(=O)O[C@H]1c1ccoc1 (stereo partly specified)	> 4 mM (inactive)
Cc1ccc(-n2cnnn2)c2cccnc12	> 4 mM (inactive)
Nc1nc2ccccc2n1CCN1CCCC1	> 4 mM (inactive)
Cc1ccc(C)c(C(=O)NCc2ccncc2)c1	> 4 mM (inactive)
Cc1occc1C(=O)Nc1cc(C(C)(C)C)on1	> 4 mM (inactive)
Oc1ccc(-n2cncn2)cc1	> 4 mM (inactive)

Structure (SMILES)	Kd
c1cc2c(cc1[C@H]1OC[C@H]3[C@@H]1CO[C@H]3c1ccc3c(c1)OCO3)OCO2	> 4 mM (inactive)
NC(=O)c1ccc(C(N)=O)cc1	> 4 mM (inactive)
O=c1c(O)cccc2cc(O)c(O)c(O)c12	> 4 mM (inactive)
Nc1ccc(N2CCCCC2)cc1	> 4 mM (inactive)
CCOC(=O)c1c(C)cc(OC)cc1O	> 4 mM (inactive)
CC1CCN(S(=O)(=O)N(C)C)CC1	> 4 mM (inactive)
O=C1c2ccc(F)cc2C(=O)N1CO	> 4 mM (inactive)
Cc1ccc(-c2nnc3sc(-c4ccncc4)nn23)cc1	> 4 mM (inactive)
CC(C)(C)NC(=O)N1CCC(C(N)=O)CC1	> 4 mM (inactive)
O=c1[nH]c(CN2CCN(CCO)CC2)nc2ccccc12	> 4 mM (inactive)
O=C(O)CC12CC3CC(CC(O)(C3)C1)C2	> 4 mM (inactive)
O=C1CNc2cc(C(=O)O)ccc2N1	> 4 mM (inactive)
Cc1c(C(=O)Nc2cnccn2)oc2ccccc12	> 4 mM (inactive)
O=c1[nH]c2ccccc2c(=O)n1CCCO	> 4 mM (inactive)
Cc1cccn2cc(CNc3ccccc3)nc12	> 4 mM (inactive)
CSc1nc(C)cc(-n2ccc(=O)[nH]c2=O)n1	> 4 mM (inactive)
NC(=O)CNC(=O)c1ccccc1	> 4 mM (inactive)
Cc1c(C)n2c(SCC(N)=O)nnc2[nH]c1=O	> 4 mM (inactive)
CCC(=O)OC1[C@@H]2CC3=C4CC(=O)O[C@@H](c5ccoc5)[C@]4(C)CCC3C(C)(C2=O)[C@@H](CC(=O)OC)C1(C)C (stereo partly specified)	> 4 mM (inactive)
O=c1[nH]c(=O)n(-c2ccc(F)cc2)c(O)c1/C=C1/C=CC=N1	> 4 mM (inactive)
COc1cc2c(cc1O)CC1c3c(cc(O)c(OC)c3-2)CCN1C (stereo unspecified)	> 4 mM (inactive)
COc1ccc(C(=O)/C=C/c2ccccc2)cc1	> 4 mM (inactive)
O=C(Nn1cnnc1)c1cccc(C(F)(F)F)c1	> 4 mM (inactive)
Cn1c(=O)[nH]c(=O)c2nsnc21	> 4 mM (inactive)
O=C(Nc1ccon1)c1cccc(Cl)c1	> 4 mM (inactive)

Structure (SMILES)	Kd
CC(=O)Nc1ccn(-c2ccccc2)n1	> 4 mM (inactive)
CC(=O)N1CN(C(C)=O)CN(C(C)=O)C1	> 4 mM (inactive)
CN(C)c1ccc(N2C(=O)CCC2=O)cc1	> 4 mM (inactive)
COC(=O)c1cccnc1Oc1ccccc1	> 4 mM (inactive)
O=C(O)c1ccccc1C(=O)NCC1CCCO1 (stereo unspecified)	> 4 mM (inactive)
CC(=O)Oc1ccccc1N1C(=O)C=CC1=O	> 4 mM (inactive)
Cn1c(CO)nc2cc(N)ccc21	> 4 mM (inactive)
CC(=O)N(c1ccccc1)C1C=CS(=O)(=O)C1 (stereo unspecified)	> 4 mM (inactive)
CC(NC(=O)c1ccco1)C1CCCO1 (stereo unspecified)	> 4 mM (inactive)
COc1nc(C)ccc1-c1noc(-c2ccncc2)n1	> 4 mM (inactive)
NCc1ccccc1N1CCCCC1	> 4 mM (inactive)
Nc1ccncc1	> 4 mM (inactive)
O=C1c2cccnc2C(=O)N1Cc1ccco1	> 4 mM (inactive)
CN(C)c1ccc(CNn2cnnc2)cc1	> 4 mM (inactive)
CNC(=O)Nc1ccc(C(=O)NC)cc1	> 4 mM (inactive)
O=C(Nc1ccon1)c1csc2ccccc12	> 4 mM (inactive)
CC(=O)Oc1cc(-c2coc3cc(OC(C)=O)c(OC(C)=O)c(OC(C)=O)c3c2=O)cc(OC(C)=O)c1OC(C)=O	> 4 mM (inactive)
Cc1cccc(NC(=O)c2ccc(=O)[nH]n2)c1	> 4 mM (inactive)
Cc1cc(C)n(CC(=O)O)n1	> 4 mM (inactive)
O=C1C=CC(=O)c2c(O)cccc21	> 4 mM (inactive)
Cc1ccc2[nH]c3nc(=S)[nH]nc3c2c1	> 4 mM (inactive)
